Results as given in patent US20240116897A1, “BENZOTHIAZOLE AND BENZIMIDAZOLE DERIVATIVES, PHARMACEUTICALLY ACCEPTABLE SALT THEREOF, PREPARATION METHOD THEREFOR, AND PHARMACEUTICAL COMPOSITION COMPRISING SAME AS ACTIVE INGREDIENT” (KOREA RESEARCH INSTITUTE OF CHEMICAL TECHNOLOGY, priority 2021, published 2024).

Target: T1, SIRT7 protein (Homo sapiens, UniProt Q9NRC8)
T1 construct: purchased SignalChem S41-30H
T1 sequence (Q9NRC8 1-400): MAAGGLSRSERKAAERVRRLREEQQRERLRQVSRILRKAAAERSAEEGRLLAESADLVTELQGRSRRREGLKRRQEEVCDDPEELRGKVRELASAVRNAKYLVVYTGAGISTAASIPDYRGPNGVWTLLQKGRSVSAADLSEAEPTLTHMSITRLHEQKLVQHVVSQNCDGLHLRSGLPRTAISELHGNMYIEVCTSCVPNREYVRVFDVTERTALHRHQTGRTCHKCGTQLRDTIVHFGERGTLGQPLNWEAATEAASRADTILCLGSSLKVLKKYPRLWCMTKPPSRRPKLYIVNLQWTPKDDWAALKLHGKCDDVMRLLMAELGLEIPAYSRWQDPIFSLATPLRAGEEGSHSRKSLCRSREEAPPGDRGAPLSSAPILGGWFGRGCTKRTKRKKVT
Assay: SIRT Glo assay, inhibitory activity against Sirt7
Format: biochemical
Conditions: 10 μM compound
Description: Promega's Cat. No. 6450 SIRT Glo assay kit was used, and as the target SIRT7 protein, No. S41-30H protein of SignalChem's Cat. was used. Prepare the compound by diluting it in SIRT Glo buffer in advance to a concentration twice as thick as the final concentration. For the positive control group of white 384 well plate (Greiner Bioone, white, small volume, Cat. No. 874075), and for compound group, dilute sirt7 protein in SIRT Glo buffer and dispense by 5 μL to contain 20 ng per well. In the background control group, 10 μL of SIRT Glo buffer is dispensed.
After adding 5 μL of SIRT Glo buffer to the positive control group, and 5 μL of the diluted compound to the compound group, react for 30 minutes. After making the substrate provided in the SIRT Glo assay, adding 10 μL each, and reacting for 1 hour, the luciferase activity is measured with a microplate reader (Molecular Device, spectramax i3).
Subtract the luciferase level of the background control group in all wells. The % inhibition of the compound was used to obtain the compound's rate of inhibitory activity against sirt7 in the following:
% inhibition=100−(compound group/positive control group)×100.

Row | inhibition at 10 µM [%] | SMILES
1 | 100 | O=C(Nc1nc2ccccc2s1)c1ccc(C=C2CCNCC2)cc1F [Compound 1-87, N-(benzo[d]thiazol-2-yl)-2-fluoro-4-(piperidin-4-ylidenemethyl)benzamide]
2 | 100 | CCNC(=O)N1CCC(=Cc2ccc(C(=O)Nc3nc4ccccc4s3)c(F)c2)CC1 [Compound 1-88, 4-(4-(benzo[d]thiazol-2-ylcarbamoyl)-3-fluorobenzylidene)-N-ethylpiperidine-1-carboxamide]
3 | 97 | O=C(Nc1nc2ccccc2s1)c1ccc(C=C2CCN(C(=O)Nc3ccccc3)CC2)cc1F [Compound 1-89, 4-(4-(benzo[d]thiazol-2-ylcarbamoyl)-3-fluorobenzylidene)-N-phenylpiperidine-1-carboxamide]
4 | 27 | O=C(Nc1nc2ccccc2s1)c1ccc(C=C2CCN(S(=O)(=O)c3ccccc3)CC2)cc1F [Compound 1-90, N-(benzo[d]thiazol-2-yl)-2-fluoro-4-((1-(phenylsulfonyl)piperidin-4-ylidene)methyl)benzamide]
5 | 76 | CCS(=O)(=O)N1CCC(=Cc2ccc(C(=O)Nc3nc4ccccc4s3)c(F)c2)CC1 [Compound 1-91, N-(benzo[d]thiazol-2-yl)-4-((1-(ethylsulfonyl)piperidin-4-ylidene)methyl)-2-fluorobenzamide]
6 | 97 | O=C(Nc1nc2ccccc2s1)c1ccc(C=C2CCN(C(=O)c3ccccc3)CC2)cc1F [Compound 1-92, N-(benzo[d]thiazol-2-yl)-4-((1-benzoylpiperidin-4-ylidene)methyl)-2-fluorobenzamide]
7 | 70 | O=C(Nc1nc2ccccc2s1)c1ccc(C=C2CCN(C(=O)Nc3ccc(C(F)(F)F)cc3)CC2)cc1F [Compound 1-93, 4-(4-(benzo[d]thiazol-2-ylcarbamoyl)-3-fluorobenzylidene)-N-(4-(trifluoromethyl)phenyl)piperidine-1-carboxamide]
8 | 98 | CC(C)NC(=O)N1CCC(=Cc2ccc(C(=O)Nc3nc4ccccc4s3)c(F)c2)CC1 [Compound 1-94, 4-(4-(benzo[d]thiazol-2-ylcarbamoyl)-3-fluorobenzylidene)-N-isopropylpiperidine-1-carboxamide]
9 | 34 | CC(C)(C)OC(=O)N1CCC(=Cc2ccc(C(=O)Nc3nc4ccccc4s3)cc2Cl)CC1 [Compound 1-95, tert-butyl 4-(4-(benzo[d]thiazol-2-ylcarbamoyl)-2-chlorobenzylidene)piperidine-1-carboxylate]
10 | 91 | O=C(Nc1nc2ccccc2s1)c1ccc(C=C2CCNCC2)c(Cl)c1 [Compound 1-96, N-(benzo[d]thiazol-2-yl)-3-chloro-4-(piperidin-4-ylidenemethyl)benzamide]
11 | 100 | CCNC(=O)N1CCC(=Cc2ccc(C(=O)Nc3nc4ccccc4s3)cc2Cl)CC1 [Compound 1-97, 4-(4-(benzo[d]thiazol-2-ylcarbamoyl)-2-chlorobenzylidene)-N-ethylpiperidine-1-carboxamide]
12 | 21 | CC(C)(C)OC(=O)N1CCC(=Cc2cc(F)c(C(=O)Nc3nc4ccccc4s3)c(F)c2)CC1 [Compound 1-98, tert-butyl 4-(4-(benzo[d]thiazol-2-ylcarbamoyl)-3,5-difluorobenzylidene)piperidine-1-carboxylate]
13 | 63 | O=C(Nc1nc2ccccc2s1)c1c(F)cc(C=C2CCNCC2)cc1F [Compound 1-99, N-(benzo[d]thiazol-2-yl)-2,6-difluoro-4-(piperidin-4-ylidenemethyl)benzamide]
14 | 96 | CCNC(=O)N1CCC(=Cc2cc(F)c(C(=O)Nc3nc4ccccc4s3)c(F)c2)CC1 [Compound 1-100, 4-(4-(benzo[d]thiazol-2-ylcarbamoyl)-3,5-difluorobenzylidene)-N-ethylpiperidine-1-carboxamide]
15 | 100 | O=C(Nc1nc2ccccc2s1)c1c(F)cc(C=C2CCN(C(=O)Nc3ccccc3)CC2)cc1F [Compound 1-101, 4-(4-(benzo[d]thiazol-2-ylcarbamoyl)-3,5-difluorobenzylidene)-N-phenylpiperidine-1-carboxamide]
16 | 37 | O=C(Nc1nc2ccccc2s1)c1c(F)cc(C=C2CCN(C(=O)Nc3ccc(C(F)(F)F)cc3)CC2)cc1F [Compound 1-102, 4-(4-(benzo[d]thiazol-2-ylcarbamoyl)-3,5-difluorobenzylidene)-N-(4-(trifluoromethyl)phenyl)piperidine-1-carboxamide]
17 | 44 | CC(C)(C)OC(=O)N1CCC(=Cc2ccc(C(=O)Nc3nc4ccccc4s3)c(Cl)c2)CC1 [Compound 1-103, tert-butyl 4-(4-(benzo[d]thiazol-2-ylcarbamoyl)-3-chlorobenzylidene)piperidine-1-carboxylate]
18 | 92 | O=C(Nc1nc2ccccc2s1)c1ccc(C=C2CCNCC2)cc1Cl [Compound 1-104, N-(benzo[d]thiazol-2-yl)-2-chloro-4-(piperidin-4-ylidenemethyl)benzamide]

Second part, the molecule before the results:

Row | SMILES | inhibition at 10 µM [%]
19 | O=C(Nc1nc2ccccc2s1)c1ccc(CN2C[C@@H]3C[C@H]2CN3C(=O)Nc2ccccc2)cc1 [Compound 1-73, (1S,4S)-5-(4-(benzo[d]thiazol-2-ylcarbamoyl)benzyl)-N-phenyl-2,5-diazabicyclo[2.2.1]heptane-2-carboxamide] | 64
20 | CC(C)(C)OC(=O)N1CC=C(c2ccc(C(=O)Nc3nc4ccccc4s3)cc2)CC1 [Compound 1-74, tert-butyl 4-(4-(benzo[d]thiazol-2-ylcarbamoyl)phenyl)-3,6-dihydropyridine-1-(2H)-carboxylate] | 10
21 | O=C(Nc1nc2ccccc2s1)c1ccc(C2=CCNCC2)cc1 [Compound 1-75, N-(benzo[d]thiazol-2-yl)-4-(1,2,3,6-tetrahydropyridin-4-yl)benzamide] | 26
22 | O=C(Nc1nc2ccccc2s1)c1ccc(C2=CCN(C(=O)Nc3ccc(C(F)(F)F)cc3)CC2)cc1 [Compound 1-76] | 5
23 | O=C(Nc1nc2ccccc2s1)c1ccc(C2CCN(C(=O)Nc3ccc(C(F)(F)F)cc3)CC2)cc1 [Compound 1-77] | 6
24 | CC(C)(C)OC(=O)N1CCC(=Cc2ccc(C(=O)Nc3nc4ccccc4s3)c(C(F)(F)F)c2)CC1 [Compound 1-78, tert-butyl 4-(4-(benzo[d]thiazol-2-ylcarbamoyl)-3-(trifluoromethyl)benzylidene)piperidine-1-carboxylate] | 14
25 | O=C(Nc1nc2ccccc2s1)c1ccc(C=C2CCNCC2)cc1C(F)(F)F [Compound 1-79, N-(benzo[d]thiazol-2-yl)-4-(piperidin-4-ylidenemethyl)-2-(trifluoromethyl)benzamide] | 71
26 | CCNC(=O)N1CCC(=Cc2ccc(C(=O)Nc3nc4ccccc4s3)c(C(F)(F)F)c2)CC1 [Compound 1-80, 4-(4-(benzo[d]thiazol-2-ylcarbamoyl)-3-(trifluoromethyl)benzylidene)-N-ethylpiperidine-1-carboxamide] | 80
27 | O=C(Nc1nc2ccccc2s1)c1ccc(C=C2CCN(C(=O)Nc3ccccc3)CC2)cc1C(F)(F)F [Compound 1-81, 4-(4-(benzo[d]thiazol-2-ylcarbamoyl)-3-(trifluoromethyl)benzylidene)-N-phenylpiperidine-1-carboxamide] | 32
28 | CC(C)(C)OC(=O)N1CCC(Cc2ccc(C(=O)Nc3nc4ccccc4s3)c(C(F)(F)F)c2)CC1 [Compound 1-82, tert-butyl 4-(4-(benzo[d]thiazol-2-ylcarbamoyl)-3-(trifluoromethyl)benzyl)piperidine-1-carboxylate] | 2
29 | O=C(Nc1nc2ccccc2s1)c1ccc(CC2CCNCC2)cc1C(F)(F)F [Compound 1-83, N-(benzo[d]thiazol-2-yl)-4-(piperidin-4-ylmethyl)-2-(trifluoromethyl)benzamide] | 42
30 | CCNC(=O)N1CCC(Cc2ccc(C(=O)Nc3nc4ccccc4s3)c(C(F)(F)F)c2)CC1 [Compound 1-84, 4-(4-(benzo[d]thiazol-2-ylcarbamoyl)-3-(trifluoromethyl)benzyl)-N-ethylpiperidine-1-carboxamide] | 53
31 | O=C(Nc1nc2ccccc2s1)c1ccc(CC2CCN(C(=O)Nc3ccccc3)CC2)cc1C(F)(F)F [Compound 1-85, 4-(4-(benzo[d]thiazol-2-ylcarbamoyl)-3-(trifluoromethyl)benzyl)-N-phenylpiperidine-1-carboxamide] | 28
32 | CC(C)(C)OC(=O)N1CCC(=Cc2ccc(C(=O)Nc3nc4ccccc4s3)c(F)c2)CC1 [Compound 1-86, tert-butyl 4-(4-(benzo[d]thiazol-2-ylcarbamoyl)-3-fluorobenzylidene)piperidine-1-carboxylate] | 60
